Assay results as given in patent publication US20170112878A1, “PROGRAMMABLE UNIVERSAL CELL RECEPTORS AND METHOD OF USING THE SAME” (Sorrento Therapeutics, Inc., priority 2015, published 2017).

Tested on: PUCR comprising 38C2 scFab expressed on the membrane of the NKL cells
Assay: Programming of PUCR on NKL cells with AZD-PEG8-biotin, detected with DTAF-conjugated streptavidin by FACS
Assay type: cell-based
Conditions: 1 μM or 10 μM, 4° C., 1 hour, PUCR-expressing vs wild-type NKL cells
From the text: To generate constructs encoding a PUCR comprising humanized 38C2 scFab, a nucleic acid encoding the humanized 38C2 scFab was designed by fusing a nucleic acid encoding humanized 38C2 […] LC domain, a nucleic acid encoding a poly-GlySer linker, a nucleic acid encoding the humanized 38C2 VH domain, and a nucleic acid encoding the human gamma 1 HC constant domain 1. The resulting nucleic acid fragment was cloned into a retroviral vector to encode a PUCR comprising an N-terminal leader peptide, followed by the 38C2 scFab, followed by a hybrid CD8 and CD28 hinge, a CD28 transmembrane domain, a CD28 intracellular domain, and a CD3ζ intracellular domain. The nucleic acid and amino acid sequences of the PUCR are shown below. NKL cells were transduced with the viral vector encoding the PUCR.
The PUCR comprising 38C2 scFab expressed on the membrane of the NKL cells was conjugated (i.e., programmed) with the specificity agent AZD-PEG8-biotin (see FIG. 11). […] AZD-PEG8-biotin comprises the reactivity moiety azetidinone which reacts with and forms a stable covalent bond with the reactive lysine of the 38C2 scFab within the PUCR. […] Fluorescence was measured using a ACEA Biosciences NovoCyte flow cytometer. Data was analyzed with FlowJo software, and DTAF-conjugated streptavidin binding was quantified by increased mean fluorescence intensity. […]

## O=C(CCCC[C@@H]1SC[C@@H]2NC(=O)N[C@@H]21)NCCOCCOCCOCCOCCOCCOCCNC(=O)CCOCCOCCC(=O)Nc1ccc(CCC(=O)N2CCC2=O)cc1 [AZD-PEG8-Biotin, 5-[(3aS,4S,6aR)-2-oxo-1,3,3a,4,6,6a-hexahydrothieno[3,4-d]imidazol-4-yl]-N-[2-[2-[2-[2-[2-[2-[2-[3-[2-[3-oxo-3-[4-[3-oxo-3-(2-oxoazetidin-1-yl)propyl]anilino]propoxy]ethoxy]propanoylamino]ethoxy]ethoxy]ethoxy]ethoxy]ethoxy]ethoxy]ethyl]pentanamide]
  conjugation (programming) of PUCR, DTAF-conjugated streptavidin binding: successfully programmed
